Experiments:
Assay type in all cases: in vivo
[1] = system: Echinochloa crus-galli; experiment: Post-emergence herbicidal action against Echinochloa crus-galli; conditions: 21 DAT; 30 g of a.i./ha
Procedure, shortened: (§1)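 Post-emergence foliar application: sandy-loam pots, greenhouse, treatment at three-leaf stage, 300–800 l/ha spray volume. Readout is visual % effect at 3–4 weeks, compared with the Colby expected value for mixtures.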

[2] = system: Sorghum halepense; experiment: Post-emergence herbicidal action against Sorghum halepense
Procedure, shortened: as §1

[3] = system: Lolium rigidum (resistant biotype); experiment: Post-emergence herbicidal action against Lolium rigidum (resistant biotype)
Procedure, shortened: (§2)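 Rates are given as grams of active ingredient (100% active compound) per hectare. E^A is the summed effect of the individual applications and E^C the expected value by Colby, with ratings timed in days after application (DAT).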

[4] = system: Setaria viridis; experiment: Post-emergence herbicidal action against Setaria viridis; conditions: 21 DAT
Description: When the observed efficacies exceed the formal sum total of the values of the tests with individual applications, they also exceed the expected value according to Colby, which is calculated using the formula below and is likewise regarded as an indication of synergism (cf. S. R. Colby; in Weeds 15 (1967) p. 20 to 22): E^C=A+B−([…])
Here: • A=efficacy of the active compound (A) in % at an application rate of a g a.i./ha; • B=efficacy of the active compound (B) in % at an application rate of b g a.i./ha; • E^C=expected value of the effect of the combination (A)+(B) in % at the combined application rate a+b g a.i./ha.
Seeds or rhizome pieces of mono- and dicotyledonous weeds are placed in sandy loam in pots, covered with soil and grown in a greenhouse under good growth conditions (temperature, air humidity, water supply). Three weeks after sowing, the test plants were treated at the three-leaf stage with the compositions according to the invention. The compositions according to the invention formulated as spray powders or as emulsion concentrates were sprayed onto the green plant parts in various dosages with an application rate of 300 to 800 l/ha of water (equivalent). After the test plants have been left to stand in the greenhouse under optimal growth conditions for about 3 to 4 weeks, the action of the preparations is scored visually in comparison to untreated controls. The compositions according to the invention also have good post-emergence herbicidal activity against a broad spectrum of economically important gramineous and broadleaf weeds.

[5] = system: Lolium rigidum; experiment: Post-emergence herbicidal action against Lolium rigidum
Procedure, shortened: as §2

[6] = system: Kochia scoparia; experiment: Post-emergence herbicidal action against Kochia scoparia; conditions: g of a.i./ha by row: 30, 5, 5 + 30
Description: (§3) The following abbreviations are used in the description and the tables that follow: • g of a.i./ha=grams of active substance (active ingredient) (=100% active compound) per hectare; • The sum total of the effects of the individual applications is reported under E^A; • expected values according to Colby are each reported under E^C.
(§4) The rating period is reported in days after application (DAT).

[7] = system: Eleusine indica; experiment: Post-emergence herbicidal action against Eleusine indica; conditions: (Z3) post-emergence, g of a.i./ha: 270, 90, 15, 5, 5 + 270, 15 + 90
Description: as §3, §4

[8] = system: Digitaria horizontalis; experiment: Post-emergence herbicidal action against Digitaria horizontalis; conditions: (Z61) post-emergence; g of a.i./ha: 200, 100, 100 + 200
Description: as §3, §4

O=C(Nc1ccc(F)cc1F)c1cccnc1Oc1cccc(C(F)(F)F)c1 [(B2.18) Diflufenican]
Herbicidal action against Echinochloa crus-galli [1]: 10% | Herbicidal action against Sorghum halepense ([2]; 21 DAT, 30 g of a.i./ha): 10% | Herbicidal action 21 DAT against Sorghum halepense ([2]; (Z3) post-emergence, g of a.i./ha: 90, 30, 15, 5, 15 + 90, 5 + 90, 15 + 30, 5 + 30): 10% | Herbicidal action 28 DAT against Lolium rigidum (resistant biotype) ([3]; 30 g of a.i./ha): 0% | Herbicidal action 28 DAT against Lolium rigidum (resistant biotype) ([3]; 90 g of a.i./ha): 0% | Herbicidal action 28 DAT against Lolium rigidum (resistant biotype) ([3]; 270 g of a.i./ha): 0% | Herbicidal action 14 DAT against Lolium rigidum (resistant biotype) ([3]; (Z61) post-emergence, g of a.i./ha by row: 4, 1, 270, 90, 4 + 270, 1 + 270, 1 + 90, 90 g of a.i./ha): 0% | Herbicidal action 14 DAT against Lolium rigidum (resistant biotype) ([3]; (Z61) post-emergence, g of a.i./ha by row: 4, 1, 270, 90, 4 + 270, 1 + 270, 1 + 90, 270 g of a.i./ha): 10% | Herbicidal action 28 DAT against Lolium rigidum (resistant biotype) ([3]; (Z61) post-emergence, g of a.i./ha: 4, 1, 270, 90, 4 + 270, 1 + 90, 90 g of a.i./ha): 10% | Herbicidal action 28 DAT against Lolium rigidum (resistant biotype) ([3]; (Z61) post-emergence, g of a.i./ha: 4, 1, 270, 90, 4 + 270, 1 + 90, 270 g of a.i./ha): 20% | Herbicidal action 14 DAT against Lolium rigidum (resistant biotype) ([3]; (Z119) post-emergence, g of a.i./ha by row: 16, 1, 90, 30, 270, 16 + 90, 16 + 30, 1 + 270, 30 g of a.i./ha): 0% | Herbicidal action 14 DAT against Lolium rigidum (resistant biotype) ([3]; (Z119) post-emergence, g of a.i./ha by row: 16, 1, 90, 30, 270, 16 + 90, 16 + 30, 1 + 270, 90 g of a.i./ha): 5% | Herbicidal action 28 DAT against Lolium rigidum (resistant biotype) ([3]; (Z119) post-emergence, g of a.i./ha: 1, 270, 1 + 270): 0% | Herbicidal action against Setaria viridis ([4]; 30 g of a.i./ha): 10% | Herbicidal action against Setaria viridis ([4]; 90 g of a.i./ha): 10% | Herbicidal action against Setaria viridis ([4]; 270 g of a.i./ha): 15% | Herbicidal action 28 DAT against Lolium rigidum ([5]; 90 g of a.i./ha): 0% | Herbicidal action 28 DAT against Lolium rigidum ([5]; 270 g of a.i./ha): 0% | Herbicidal action 14 DAT against Lolium rigidum ([5]; (Z61) post-emergence, g of a.i./ha: 1, 270, 90, 30, 1 + 270, 1 + 90, 1 + 30, 30 g of a.i./ha): 0% | Herbicidal action 14 DAT against Lolium rigidum ([5]; (Z61) post-emergence, g of a.i./ha: 1, 270, 90, 30, 1 + 270, 1 + 90, 1 + 30, 270 g of a.i./ha): 10% | Herbicidal action 28 DAT against Lolium rigidum ([5]; (Z61) post-emergence, g of a.i./ha: 4, 1, 270, 90, 4 + 270, 4 + 90, 1 + 270, 1 + 90, 90 g of a.i./ha): 15% | Herbicidal action 28 DAT against Lolium rigidum ([5]; (Z61) post-emergence, g of a.i./ha: 4, 1, 270, 90, 4 + 270, 4 + 90, 1 + 270, 1 + 90, 270 g of a.i./ha): 20% | Herbicidal action 14 DAT against Lolium rigidum ([5]; (Z119) post-emergence, g of a.i./ha by row: 16, 1, 90, 270, 16 + 90, 1 + 270): 5% | Herbicidal action 28 DAT against Lolium rigidum ([5]; (Z119) post-emergence, g of a.i./ha: 16, 4, 1, 270, 90, 30, 16 + 270, 16 + 90, 16 + 30, 4 + 270, 4 + 90, 4 + 30, 1 + 270): 0% | Herbicidal action 21 DAT against Kochia scoparia [6]: 25% | Herbicidal action 21 DAT against Eleusine indica ([7]; 90 g of a.i./ha): 20% | Herbicidal action 21 DAT against Eleusine indica ([7]; 270 g of a.i./ha): 30% | Herbicidal action 28 DAT against Digitaria horizontalis [8]: 0%
